Test results from patent US6969718B2, “17-β hydroxysteroid dehydrogenase type 3 inhibitors for the treatment of androgen dependent diseases” (Schering Corporation, priority 2001, dated 2005).

Row | melting point | Structure (SMILES)
1 | 76 to 82 °C | CC(C)[C@H]1CN(C(C)c2ccc(Cl)cc2)CCN1C(=O)CC1CCN(C(N)=O)CC1 (stereo partly drawn) [Example 101]
2 | 49 to 53 °C | CC(=O)N1CCC(CC(=O)N2CCN(Cc3ccc(Cl)c(Cl)c3)C[C@@H]2C(C)(C)C)CC1 [Example 104]
3 | 62.1 to 63.6 °C | CC(=O)N1CCC(CC(=O)N2CCN(Cc3ccccc3-c3ccc(Cl)c(Cl)c3)C[C@@H]2C(C)(C)C)CC1 [Example 106]
4 | 145.7 to 147 °C | CC(=O)N1CCC(CC(=O)N2CCN(Cc3ccc(-c4ccc(Cl)c(Cl)c4)cn3)C[C@@H]2C(C)(C)C)CC1 [Example 107]
5 | 61 to 63 °C | CC(=O)N1CCC(CC(=O)N2CCN(C(CC3CC3)c3ccc(Cl)c(Cl)c3)C[C@@H]2C(C)(C)C)CC1 (stereo partly drawn) [Example 109]
6 | 61 to 65 °C | CC(=O)N1CCC(CC(=O)N2CCN(C(CC3CC3)c3ccc(Cl)c(Cl)c3)C[C@@H]2C(C)(C)C)CC1 (stereo partly drawn) [Example 110]
7 | 61 to 63 °C | CC(=O)N1CCC(CC(=O)N2CCN(C(CCC(F)(F)F)c3ccc(C(F)(F)F)cc3)C[C@@H]2C(C)(C)C)CC1 (stereo partly drawn) [Example 111]
8 | 80 to 85 °C | CC(C)(C)[C@H]1CN(Cc2ccc(Cl)c(Cl)c2)CCN1C(=O)CC1CCN(C(N)=O)CC1 [Example 113]
9 | 98.8 to 102.4 °C | CC(C)(C)[C@H]1CN(Cc2ccccc2-c2ccc(Cl)c(Cl)c2)CCN1C(=O)CC1CCN(C(N)=O)CC1 [Example 114]
10 | 95.2 to 98 °C | CC(C)(C)[C@H]1CN(Cc2ccc(-c3ccc(Cl)c(Cl)c3)cn2)CCN1C(=O)CC1CCN(C(N)=O)CC1 [Example 115]
11 | 91 to 94 °C | CC(C)(C)[C@H]1CN(C(CC2CC2)c2ccc(Cl)c(Cl)c2)CCN1C(=O)CC1CCN(C(N)=O)CC1 (stereo partly drawn) [Example 116]
12 | 76 to 80 °C | CC(C)(C)[C@H]1CN(C(CCC(F)(F)F)c2ccc(C(F)(F)F)cc2)CCN1C(=O)CC1CCN(C(N)=O)CC1 (stereo partly drawn) [Example 117]
